Test results reported in patent publication US10160867B2, “Benzoxaborole-containing coating resistant to cellulose-supportable fungus” (THE PENN STATE RESEARCH FOUNDATION, priority 2015, dated 2018).
In brackets after ≈: the same amount, converted by molar mass.

Assays:
[1] = test system: Alternaria alternata; test: Painted discs with or without UV irradiation before inoculation (defacement); type: cell-based; design: key: rating 10 = 0% defacement to 0 = 91-100% defacement; details: +100 μg/mL in Olympic Home latex paint
Experimental: In a separate study, painted filter paper discs were irradiated with UV light from a 30 watt bulb for 2 hours and then inoculated with Alternaria alternata spores (“+UV” in the table below), or were inoculated without prior UV irradiation (“no UV” in the Table 4). The painted filter papers were incubated as discussed elsewhere herein, evaluated at 13 and 21 days post-inoculation for defacement by fungal growth and compared to similar painted filter paper discs that were not irradiated prior to inoculation.
Samples were evaluated at regular intervals. The intensity of the fungal growth was rated by estimating the percentage of surface defacement using the following ratings: 10: 0% defacement; 9=1-10% defacement; 8=11-20% defacement; 7=21-30% defacement; 6=31-40% defacement; 5=41-50% defacement; 4=51-60% defacement; 3=61-70% defacement; 2=71-80% defacement; 1=81-90% defacement; and 0=91-100% defacement. A grid that divides the circular area into 20 equal sections as shown in FIG. 1 was used to estimate the extent (percent defacement) of fungal growth.

[2] = Solubility in water
[3] = +UV (30 watt bulb, 2 hours, before inoculation), 13 days
[4] = +UV (30 watt bulb, 2 hours, before inoculation), 21 days

| Structure (SMILES) | Average Defacement ± standard deviation for 3 replicates [1, 3] | Average Defacement ± standard deviation for 3 replicates [1, 4] | Average Defacement ± standard deviation for 3 replicates ([1]; no UV, 13 days) | Average Defacement ± standard deviation for 3 replicates ([1]; no UV, 21 days) | solubility [2] |
| --- | --- | --- | --- | --- | --- |
| OB1OCc2cc(F)ccc21 [Compound B9, 5-Fluoro-1,3-dihydro-2,1-benzoxaborol-1-ol] | 10.0 ± 0.0 | 8.3 ± 2.1 | 10.0 ± 0.0 | 9.0 ± 0.0 | 800 µg/mL (≈ 5.27 mM) |
| CCCCNC(=O)OCC#CI [IPBC, 3-Iodo-2-propynylbutylcarbamate] | 9.7 ± 0.6 | 6.0 ± 4.4 | 8.3 ± 2.1 | 4.0 ± 4.0 | – |
